Laboratory results published in PubChem BioAssay (NCI).
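48-hour exposure; five concentrations; linearly interpolated endpoints. GI50: concentration for 50% inhibition of growth. TGI denotes the concentration required for complete inhibition of growth.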

How the values were obtained:
Assay in all cases: DTP human tumour cell line panel, 48 h
[1] = system: 786-0 renal
[2] = system: A498 renal
[3] = system: A549 NSCLC
[4] = system: ACHN renal
[5] = system: BT-549 breast
[6] = system: CAKI-1 renal
[7] = system: CCRF-CEM leukemia
[8] = system: COLO 205 colon
[9] = system: DU-145 prostate
[10] = system: EKVX NSCLC
[11] = system: HCC-2998 colon
[12] = system: HCT-116 colon
[13] = system: HCT-15 colon
[14] = system: HL-60(TB) leukemia
[15] = system: HOP-62 NSCLC
[16] = system: HOP-92 NSCLC
[17] = system: HS 578T breast
[18] = system: HT29 colon
[19] = system: IGROV1 ovarian
[20] = system: K-562 leukemia
[21] = system: KM12 colon
[22] = system: LOX IMVI melanoma
[23] = system: M14 melanoma
[24] = system: MALME-3M melanoma
[25] = system: MCF7 breast
[26] = system: MDA-MB-231 breast
[27] = system: MDA-MB-435
[28] = system: MOLT-4 leukemia
[29] = system: NCI-H226 lung
[30] = system: NCI-H23 lung
[31] = system: NCI-H460 lung
[32] = system: NCI-H522 lung
[33] = system: NCI/ADR-RES ovarian
[34] = system: OVCAR-3 ovarian
[35] = system: OVCAR-4 ovarian
[36] = system: OVCAR-5 ovarian
[37] = system: OVCAR-8 ovarian
[38] = system: PC-3 prostate
[39] = system: RPMI-8226 leukemia
[40] = system: RXF 393 renal
[41] = system: SF-268 CNS
[42] = system: SF-295 CNS
[43] = system: SF-539 CNS
[44] = system: SK-MEL-2 melanoma
[45] = system: SK-MEL-28 melanoma
[46] = system: SK-MEL-5 melanoma
[47] = system: SK-OV-3 ovarian
[48] = system: SN12C renal
[49] = system: SNB-19 CNS
[50] = system: SNB-75 CNS
[51] = system: SR leukemia
[52] = system: SW-620 colon
[53] = system: T-47D breast
[54] = system: TK-10 renal
[55] = system: U251 CNS
[56] = system: UACC-257 melanoma
[57] = system: UACC-62 melanoma
[58] = system: UO-31 renal

Compound: O=C1Nc2cc(Cl)ccc2/C1=C\c1c(-c2ccc(F)cc2)nc2ccccn12
- GI50 [1]: 998 nM
- TGI [1]: 2590 nM
- GI50 [2]: 1310 nM
- TGI [2]: 6030 nM
- GI50 [3]: 690 nM
- TGI [3]: 2150 nM
- GI50 [4]: 1250 nM
- TGI [4]: 3220 nM
- GI50 [5]: 1210 nM
- TGI [5]: 5680 nM
- GI50 [6]: 498 nM
- TGI [6]: 2130 nM
- GI50 [7]: 832 nM
- TGI [7]: > 100000 nM
- GI50 [8]: 552 nM
- TGI [8]: 1940 nM
- GI50 [9]: 1490 nM
- GI50 [10]: 2770 nM
- TGI [10]: > 100000 nM
- GI50 [11]: 1100 nM
- TGI [11]: 2880 nM
- GI50 [12]: 444 nM
- TGI [12]: 1630 nM
- GI50 [13]: 686 nM
- TGI [13]: 7260 nM
- GI50 [14]: 346 nM
- TGI [14]: 1460 nM
- GI50 [15]: 916 nM
- TGI [15]: 2290 nM
- GI50 [16]: 4420 nM
- TGI [16]: 26500 nM
- GI50 [17]: 1660 nM
- TGI [17]: > 20400 nM
- GI50 [18]: 389 nM
- TGI [18]: 1340 nM
- GI50 [19]: 1020 nM
- TGI [19]: 5820 nM
- GI50 [20]: 320 nM
- TGI [20]: > 100000 nM
- GI50 [21]: 573 nM
- TGI [21]: > 100000 nM
- GI50 [22]: 723 nM
- TGI [22]: 2650 nM
- GI50 [23]: 510 nM
- TGI [23]: 2570 nM
- GI50 [24]: 690 nM
- TGI [24]: 2410 nM
- GI50 [25]: 387 nM
- TGI [25]: 2420 nM
- GI50 [26]: 1480 nM
- TGI [26]: 6380 nM
- GI50 [27]: 167 nM
- TGI [27]: 519 nM
- GI50 [28]: 563 nM
- TGI [28]: > 100000 nM
- GI50 [29]: 1320 nM
- TGI [29]: 3650 nM
- GI50 [30]: 765 nM
- TGI [30]: 4450 nM
- GI50 [31]: 408 nM
- TGI [31]: 1490 nM
- GI50 [32]: 239 nM
- TGI [32]: 919 nM
- GI50 [33]: 277 nM
- TGI [33]: 1060 nM
- GI50 [34]: 424 nM
- TGI [34]: 2970 nM
- GI50 [35]: 1450 nM
- TGI [35]: 3000 nM
- GI50 [36]: 1700 nM
- TGI [36]: 5810 nM
- GI50 [37]: 1980 nM
- TGI [37]: 8210 nM
- GI50 [38]: 1140 nM
- TGI [38]: 5390 nM
- GI50 [39]: 1360 nM
- GI50 [40]: 631 nM
- TGI [40]: 2190 nM
- GI50 [41]: 1290 nM
- TGI [41]: > 24600 nM
- GI50 [42]: 376 nM
- TGI [42]: 1730 nM
- GI50 [43]: 915 nM
- TGI [43]: 2950 nM
- GI50 [44]: 458 nM
- TGI [44]: 2190 nM
- GI50 [45]: 995 nM
- TGI [45]: 4590 nM
- GI50 [46]: 559 nM
- TGI [46]: 2040 nM
- GI50 [47]: 1050 nM
- TGI [47]: 2420 nM
- GI50 [48]: 1030 nM
- GI50 [49]: 1150 nM
- TGI [49]: 22100 nM
- GI50 [50]: 304 nM
- TGI [50]: 1340 nM
- GI50 [51]: 112 nM
- TGI [51]: > 100000 nM
- GI50 [52]: 445 nM
- TGI [52]: 2600 nM
- GI50 [53]: 1120 nM
- TGI [53]: 2960 nM
- GI50 [54]: 1380 nM
- TGI [54]: 2990 nM
- GI50 [55]: 541 nM
- TGI [55]: 2090 nM
- GI50 [56]: 5020 nM
- TGI [56]: 48500 nM
- GI50 [57]: 546 nM
- TGI [57]: 12400 nM
- GI50 [58]: 686 nM
- TGI [58]: 2700 nM
